According to PubChem BioAssay (NCI):
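Growth conditions: 96-well plates. Treatment: test compound, 48 hours, 5 concentrations. Analysis: linear interpolation between bracketing concentrations; unreached endpoints set to highest concentration. GI50: concentration for 50% inhibition of growth. Definition used: TGI = concentration required for complete inhibition of growth.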

Experiments:
Assay in all cases: inhibition of tumour cell growth, NCI panel, 48 h
[1] = tested on: 786-0 renal
[2] = tested on: A498 renal
[3] = tested on: A549 NSCLC
[4] = tested on: ACHN renal
[5] = tested on: BT-549 breast
[6] = tested on: CAKI-1 renal
[7] = tested on: CCRF-CEM leukemia
[8] = tested on: COLO 205 colon
[9] = tested on: DU-145 prostate
[10] = tested on: EKVX NSCLC
[11] = tested on: HCC-2998 colon
[12] = tested on: HCT-116 colon
[13] = tested on: HCT-15 colon
[14] = tested on: HL-60(TB) leukemia
[15] = tested on: HOP-62 NSCLC
[16] = tested on: HS 578T breast
[17] = tested on: HT29 colon
[18] = tested on: IGROV1 ovarian
[19] = tested on: K-562 leukemia
[20] = tested on: KM12 colon
[21] = tested on: LOX IMVI melanoma
[22] = tested on: M14 melanoma
[23] = tested on: MALME-3M melanoma
[24] = tested on: MCF7 breast
[25] = tested on: MDA-MB-231 breast
[26] = tested on: MDA-MB-435
[27] = tested on: MOLT-4 leukemia
[28] = tested on: NCI-H226 lung
[29] = tested on: NCI-H23 lung
[30] = tested on: NCI-H460 lung
[31] = tested on: NCI-H522 lung
[32] = tested on: NCI/ADR-RES ovarian
[33] = tested on: OVCAR-3 ovarian
[34] = tested on: OVCAR-4 ovarian
[35] = tested on: OVCAR-5 ovarian
[36] = tested on: OVCAR-8 ovarian
[37] = tested on: PC-3 prostate
[38] = tested on: RPMI-8226 leukemia
[39] = tested on: RXF 393 renal
[40] = tested on: SF-268 CNS
[41] = tested on: SF-295 CNS
[42] = tested on: SF-539 CNS
[43] = tested on: SK-MEL-2 melanoma
[44] = tested on: SK-MEL-28 melanoma
[45] = tested on: SK-MEL-5 melanoma
[46] = tested on: SK-OV-3 ovarian
[47] = tested on: SN12C renal
[48] = tested on: SNB-19 CNS
[49] = tested on: SNB-75 CNS
[50] = tested on: SW-620 colon
[51] = tested on: T-47D breast
[52] = tested on: TK-10 renal
[53] = tested on: U251 CNS
[54] = tested on: UACC-257 melanoma
[55] = tested on: UACC-62 melanoma
[56] = tested on: UO-31 renal

In the case of `CN(C)CCOc1ccc(-c2cc(-c3ccc4c(c3)CC/C4=N\O)c(-c3ccncc3)o2)cc1`, the GI50 [1] is reported as 3.55 µM, the TGI [1] is reported as 7.75 µM and the GI50 [2] is reported as 4.22 µM. The TGI [2] was 8.17 µM, the GI50 [3] was 3.57 µM and the TGI [3] was 7.06 µM. The GI50 [4] was 3.62 µM, the TGI [4] was 6.98 µM and the GI50 [5] was 4.35 µM. It also gave a TGI [5] of 8.03 µM, a GI50 [6] of 4.19 µM and a TGI [6] of 8.71 µM. The GI50 [7] was 3.76 µM, the TGI [7] was 13.3 µM and the GI50 [8] was 0.112 µM. The TGI [8] was 4.35 µM, the GI50 [9] was 3.78 µM and the TGI [9] was 7.38 µM. The GI50 [10] was 3.93 µM, the TGI [10] was 8.07 µM and the GI50 [11] was 5.5 µM. It also gave a TGI [11] of 9.5 µM, a GI50 [12] of 1.29 µM and a TGI [12] of 4.5 µM. For the same molecule, the GI50 [13] was 3.35 µM, the TGI [13] was 7.09 µM and the GI50 [14] was 5.46 µM. For the same molecule, the TGI [14] was 10.8 µM, the GI50 [15] was 3.84 µM and the TGI [15] was 7.92 µM. The GI50 [16] was 4.59 µM, the TGI [16] was 12.4 µM and the GI50 [17] was 0.451 µM. It also gave a TGI [17] of 4.39 µM, a GI50 [18] of 4.7 µM and a TGI [18] of 10.1 µM. The GI50 [19] was 0.668 µM, the TGI [19] was 3.27 µM and the GI50 [20] was 3.57 µM. For the same molecule, the TGI [20] was 7.28 µM, the GI50 [21] was 1.66 µM and the TGI [21] was 5.63 µM. It also gave a GI50 [22] of 0.0653 µM, a TGI [22] of 3.39 µM and a GI50 [23] of 0.0245 µM. It also gave a TGI [23] of 0.179 µM, a GI50 [24] of 5.02 µM and a TGI [24] of 10.1 µM. It also gave a GI50 [25] of 3.34 µM, a TGI [25] of 7.19 µM and a GI50 [26] of 0.156 µM. It also gave a TGI [26] of 4.39 µM, a GI50 [27] of 3.86 µM and a TGI [27] of 10.3 µM. For the same molecule, the GI50 [28] was 4.78 µM, the TGI [28] was 9.7 µM and the GI50 [29] was 3.21 µM. It also gave a TGI [29] of 7.12 µM, a GI50 [30] of 1.1 µM and a TGI [30] of 3.95 µM. The GI50 [31] was 3.73 µM, the TGI [31] was 8.02 µM and the GI50 [32] was 5.05 µM. For the same molecule, the TGI [32] was 11 µM, the GI50 [33] was 4.38 µM and the TGI [33] was 8.16 µM. It also gave a GI50 [34] of 5.16 µM, a TGI [34] of 11.2 µM and a GI50 [35] of 3.32 µM. The TGI [35] was 6.79 µM, the GI50 [36] was 3.97 µM and the TGI [36] was 9 µM. The GI50 [37] was 4.16 µM, the TGI [37] was 8.22 µM and the GI50 [38] was 4.28 µM. It also gave a TGI [38] of 10.7 µM, a GI50 [39] of 3.07 µM and a TGI [39] of 6.78 µM. For the same molecule, the GI50 [40] was 4.72 µM, the TGI [40] was 9.94 µM and the GI50 [41] was 3.8 µM. The TGI [41] was 7.68 µM, the GI50 [42] was 3.64 µM and the TGI [42] was 7.41 µM. For the same molecule, the GI50 [43] was 0.281 µM, the TGI [43] was 3.54 µM and the GI50 [44] was 0.111 µM. For the same molecule, the TGI [44] was 3.71 µM, the GI50 [45] was 2.2 µM and the TGI [45] was 5.86 µM. For the same molecule, the GI50 [46] was 4.08 µM, the TGI [46] was 7.51 µM and the GI50 [47] was 3.96 µM. For the same molecule, the TGI [47] was 7.73 µM, the GI50 [48] was 4.68 µM and the TGI [48] was 8.6 µM. It also gave a GI50 [49] of 1.27 µM, a TGI [49] of 6 µM and a GI50 [50] of 1.92 µM. It also gave a TGI [50] of 5.45 µM, a GI50 [51] of 4.66 µM and a TGI [51] of 9.62 µM. For the same molecule, the GI50 [52] was 5.62 µM, the TGI [52] was 9.79 µM and the GI50 [53] was 2.41 µM. For the same molecule, the TGI [53] was 5.55 µM, the GI50 [54] was 0.0945 µM and the TGI [54] was 1.87 µM. It also gave a GI50 [55] of 0.0906 µM, a TGI [55] of 3.79 µM and a GI50 [56] of 5.21 µM. The TGI [56] was 9.47 µM.
